The text below walks through data of US20210369853A1, “TARGETED PROTEASE DEGRADATION PLATFORM” (EUBULUS BIOTHERAPEUTICS INC., priority 2018, published 2021).

One experiment concerns Human Monocytic Leukemia MV4-11. The experiment in a line: Cell proliferation experiment (Alarm blue, 72 h, EC50). Conditions: Homo sapiens, MV4-11, MV4;11 cells. The experiment is classed as cell-based. An outline of the steps:
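Log-phase cells were seeded in 96-well plates, then exposed to test compound in a 5-fold dilution series, in duplicate, for 72 h. Fluorescence read by Alarm blue. EC50 fitted with a four-parameter (Min, Max, Slope) equation.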
In turn, `Cc1ncsc1-c1ccc(CNC(=O)[C@@H]2C[C@@H](O)CN2C(=O)[C@@H](NC(=O)CCNCCOCCOCCOCCNC(=O)c2ccc(Nc3ncc4c(n3)-c3ccc(Cl)cc3C(c3c(F)cccc3F)=NC4)cc2)C(C)(C)C)cc1` [UB-180780] displayed an EC50 of more than 1000 nM.

Molecule `O=C1CCC(N2Cc3c(NC(=O)CNCCOCCn4cc(CNC(=O)[C@]5(Cc6cccc(Nc7nccs7)n6)CC[C@@H](Oc6cccc(Cl)c6F)CC5)nn4)cccc3C2=O)C(=O)N1` (some centres unmarked) [UB-180742] yielded an EC50 of 100 to 1000 nM.

Regarding `CC[C@@H]1c2c(C#N)ncn2-c2cnc(Nc3ccc(C(=O)NC4CCN(CCCCC(=O)N[C@H](C(=O)N5C[C@H](O)C[C@H]5C(=O)NCc5ccc(-c6scnc6C)cc5)C(C)(C)C)CC4)cc3OC)nc2N1C1CCCC1` [UB-180591], the concentration giving a half-maximal response (EC50) was in the range of 100 to 1000 nM. The same measure, in the same setting: then `O=C1CCC(N2Cc3c(NC(=O)CCOCCOCCOCCNCCNC(=O)c4ccc(Nc5ncc6c(n5)-c5ccc(Cl)cc5C(c5c(F)cccc5F)=NC6)cc4)cccc3C2=O)C(=O)N1` (centres unmarked) [UB-180796], with more than 1000 nM; and `CC[C@@H]1C(=O)N(C)c2cnc(Nc3ccc(C(=O)NCCOCCNCCCCCCCC(=O)Nc4cccc5c4CN(C4CCC(=O)NC4=O)C5=O)cc3OC)nc2N1Cc1ccc(Br)cc1` (some centres unmarked) [UB-180652], with 10 to 100 nM; and `CC[C@@H]1C(=O)N(C)c2cnc(Nc3ccc(C(=O)NCCC(=O)N[C@H](C(=O)N4C[C@H](O)C[C@H]4C(=O)NCc4ccc(-c5scnc5C)cc4)C(C)(C)C)cc3OC)nc2N1C1CCCC1` [UB-180622], with 10 to 100 nM. Consider `O=C1CCC(N2Cc3c(NC(=O)CCNCCOCCOCCOCCNC(=O)c4ccc(Nc5ncc6c(n5)-c5ccc(Cl)cc5C(c5c(F)cccc5F)=NC6)cc4)cccc3C2=O)C(=O)N1` (centres unmarked) [UB-180728], for which the EC50 is 100 to 1000 nM. `CC[C@@H]1C(=O)N(C)c2cnc(Nc3ccc(C(=O)NC4CCN(CCOCCNCC(=O)Nc5cccc6c5CN(C5CCC(=O)NC5=O)C6=O)C4)cc3OC)nc2N1C1CCCC1` (some centres unmarked) [UB-180713]: the EC50 lay within 10 to 100 nM.

As for `O=C1CCC(N2Cc3c(NC(=O)CCNCCn4cc(CNC(=O)[C@]5(Cc6cccc(Nc7nccs7)n6)CC[C@@H](Oc6cccc(Cl)c6F)CC5)nn4)cccc3C2=O)C(=O)N1` (some centres unmarked) [UB-180729], the EC50 is 100 to 1000 nM. Still for that read-out and setting: in the case of `O=C1CCC(N2Cc3c(NC(=O)COCCOCCOCCNCCOCCNC(=O)[C@]4(Cc5cccc(Nc6nccs6)n5)CC[C@@H](Oc5cccc(Cl)c5F)CC4)cccc3C2=O)C(=O)N1` (some centres unmarked) [UB-180799] it was 100 to 1000 nM. On to `CC[C@@H]1C(=O)N(C)c2cnc(Nc3ccc(C(=O)NC4CCN(CCNCCCC(=O)Nc5cccc6c5CN(C5CCC(=O)NC5=O)C6=O)CC4)cc3OC)nc2N1Cc1ccc(Br)cc1` (some centres unmarked) [UB-180688], for which the 50% effective concentration (EC50) is 10 to 100 nM. Same read-out and setting: in the case of `CC[C@@H]1C(=O)N(C)c2cnc(Nc3ccc(C(=O)NC4CCN(CCOCCNCC(=O)Nc5cccc6c5CN(C5CCC(=O)NC5=O)C6=O)CC4)cc3OC)nc2N1Cc1ccc(C)s1` (some centres unmarked) [UB-180746] it was 10 to 100 nM; in that of `O=C1CCC(N2Cc3c(NC(=O)CCNCCn4ncc(CNC(=O)[C@]5(Cc6cccc(Nc7nccs7)n6)CC[C@@H](Oc6cccc(Cl)c6F)CC5)n4)cccc3C2=O)C(=O)N1` (some centres unmarked) [UB-180774], 100 to 1000 nM. On the same count and under the same terms, in the case of `CC[C@@H]1C(=O)N(C)c2cnc(Nc3ccc(C(=O)NCCNCCCC(=O)Nc4cccc5c4CN(C4CCC(=O)NC4=O)C5=O)cc3OC)nc2N1Cc1ccc(Br)cc1` (some centres unmarked) [UB-180690] it was 10 to 100 nM; in that of `O=C1CCC(N2Cc3c(NC(=O)CNCCOCCn4cc(CNC(=O)c5ccc(Nc6ncc7c(n6)-c6ccc(Cl)cc6C(c6c(F)cccc6F)=NC7)cc5)nn4)cccc3C2=O)C(=O)N1` (centres unmarked) [UB-180743], 100 to 1000 nM.

Still in this experiment, the particulars now being: MV4;11 cells.
The molecule `O=C1CCC(N2Cc3c(NC(=O)CCNCCOCCn4cc(CNC(=O)[C@]5(Cc6cccc(Nc7nccs7)n6)CC[C@@H](Oc6cccc(Cl)c6F)CC5)nn4)cccc3C2=O)C(=O)N1` (some centres unmarked) [UB-180749] had an EC50 of 100 to 1000 nM. Same read-out and setting: in the case of `O=C1CCC(N2Cc3c(NC(=O)CCNCCOCCn4cc(CNC(=O)c5ccc(Nc6ncc7c(n6)-c6ccc(Cl)cc6C(c6c(F)cccc6F)=NC7)cc5)nn4)cccc3C2=O)C(=O)N1` (centres unmarked) [UB-180738] it was 100 to 1000 nM.
